# The source made the active and inactive calls. The calls are words filed in the database; no cut-off is given here.
# What was measured:
# [1] = molecular target: T1, Amyloid-beta precursor protein (Homo sapiens, UniProt P05067); experiment: Disaggregation of Fe3+ induced Amyloid beta (1 to 42) (unknown origin) aggregation at 100 uM incubated for 24 hrs by ThioflavinT-dye based fluorescence analysis
# [2] = molecular target: T1, Amyloid-beta precursor protein; experiment: Inhibition of Amyloid beta (1 to 42) (unknown origin) aggregation at 100 uM incubated for 24 hrs by ThioflavinT-dye based fluorescence analysis
# [3] = molecular target: T1, Amyloid-beta precursor protein; experiment: Inhibition of Amyloid beta (1 to 42) (unknown origin) aggregation incubated for 24 hrs by ThioflavinT-dye based fluorescence analysis
# [4] = Metal chelating activity assessed as compound-Zn2+ complex formation incubated for 1 hr by UV-vis spectrophotometric analysis
# [5] = Metal chelating activity assessed as compound-Cu2+ complex formation incubated for 1 hr by UV-vis spectrophotometric analysis
# [6] = Metal chelating activity assessed as compound-Fe3+ complex formation incubated for 1 hr by UV-vis spectrophotometric analysis
# T1 sequence (P05067 whole entry): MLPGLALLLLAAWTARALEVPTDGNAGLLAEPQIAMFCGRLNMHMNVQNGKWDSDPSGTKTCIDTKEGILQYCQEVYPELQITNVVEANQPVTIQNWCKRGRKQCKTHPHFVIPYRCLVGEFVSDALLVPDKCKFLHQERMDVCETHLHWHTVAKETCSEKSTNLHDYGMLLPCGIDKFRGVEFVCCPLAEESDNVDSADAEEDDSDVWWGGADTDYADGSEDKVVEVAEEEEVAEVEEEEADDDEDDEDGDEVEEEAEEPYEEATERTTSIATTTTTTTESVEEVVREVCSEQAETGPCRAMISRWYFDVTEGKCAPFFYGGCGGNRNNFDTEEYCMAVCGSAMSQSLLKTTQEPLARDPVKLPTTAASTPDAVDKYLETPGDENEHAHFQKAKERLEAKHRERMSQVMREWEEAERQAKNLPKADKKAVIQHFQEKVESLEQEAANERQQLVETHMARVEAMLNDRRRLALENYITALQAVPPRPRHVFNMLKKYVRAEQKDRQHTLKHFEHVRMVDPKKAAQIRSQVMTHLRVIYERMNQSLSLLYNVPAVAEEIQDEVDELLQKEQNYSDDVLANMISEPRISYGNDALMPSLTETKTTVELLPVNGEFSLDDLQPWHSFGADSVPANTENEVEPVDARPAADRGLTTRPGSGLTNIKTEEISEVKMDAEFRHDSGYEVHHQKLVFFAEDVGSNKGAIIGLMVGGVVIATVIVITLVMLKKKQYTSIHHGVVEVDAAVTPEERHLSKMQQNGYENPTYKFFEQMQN
Compound,Activity [1],inhibition [2] [%],IC50 [3] [nM],Activity [4],Activity [5],Activity [6]
COc1cc(O)cc(C(=O)O)c1C(=O)c1c(O)cc(CO)cc1O,Active,73.2,1070,Active,Active,Active
COC(=O)c1cc(O)cc(OC)c1C(=O)c1c(O)cc(CO[C@H]2O[C@H](CO)[C@@H](O)[C@H](O)[C@H]2O)cc1O,Active,84.5,1030,Active,Active,Active
COC(=O)c1cc(O[C@@H]2O[C@H](CO)[C@@H](O)[C@H](O)[C@H]2O)cc(OC)c1C(=O)c1c(O)cc(C)cc1O,–,85.2,4730,–,–,–
COC(=O)c1cc(O[C@@H]2O[C@H](COC(=O)CCC(=O)O)[C@@H](O)[C@H](O)[C@H]2O)cc(OC)c1C(=O)c1c(O)cc(C)cc1O,–,64.1,3010,–,–,–
COC(=O)c1c(O)cc(C)cc1C(=O)c1cc(O)cc2oc3cc4c(c(O)c3c12)C(=O)c1c(O)cc(C)cc1C4=O,–,85.5,1560,–,–,–
Cc1cc(O)c(C(=O)c2c(O)cc3c(c2O)C(=O)c2c(O)cc(C)cc2C3=O)c(C(=O)c2cc(O)c(O)cc2O)c1,Active,86.3,180,Active,Active,Active
COC(=O)c1c(O)cc(C)c(Sc2c(O)cc(OC)c(Oc3c(O)cc(C)cc3O)c2O)c1C(=O)c1c(O)cc(C)cc1O,Active,85.7,100,Active,Active,Active
O=C(O[C@@H]1Cc2c(O)cc(O)cc2O[C@@H]1c1cc(O)c(O)c(O)c1)c1cc(O)c(O)c(O)c1 [EPIGALOCATECHIN GALLATE],–,–,140,–,–,–
